Read-outs that look alike come from different tables or passages of the source.
Tests used:
rats [1] = conditions: cited from earlier work; for pro-depressive effects: 2-ethoxymethyl ether Sal B 0.3 mg/kg, β-tetrahydropyran Sal B 2 mg/kg
rats [2] = conditions: 0.1 mg/kg; cited from earlier work
rats [3] = conditions: cited from earlier work
human KOPr [4] = conditions: cited from earlier work
Sprague Dawley rats [5] = test: Sucrose self-administration / sucrose intake; format: in vivo, rat; conditions: 0.3 and 1.0 mg/kg i.p., 45 min pretreatment
Experimental: For sucrose reinforcement tests, rats were maintained at approximately 85% of their initial feeding weights with free access to water throughout the experiment. Rats were trained to orally self-administer a 10% sucrose solution in eight modular test chambers (Med Associates) as previously described. Rats were trained to self-administer sucrose orally using an auto-shaping procedure (45 min daily for ten days). Once stable responding was achieved, the animals were maintained on a Fixed Ratio 1 (FR1) schedule of reinforcement where depression of the active lever (left lever) led to the delivery of sucrose solution. Following oral acquisition, the response requirements were increased to an FR5 schedule of reinforcement. Daily 1 h sessions were conducted until there was less than 20% variation in responding for three consecutive days. The animals on stable FR5 reinforcements were subjected to the sucrose reinforcement test. On the test day, rats received either vehicle (75% DMSO, 1 mL/kg, i.p.) or Mesyl Sal B (0.3, 1.0 mg/kg, i.p.) and 45 min later, sucrose reinforced lever-press responding was recorded for 60 min.

B6.SJL mice [6] = format: in vivo, mouse
drug naïve rats = conditions: cited from earlier work
KOPr [7] = target: T1, KOPr (Homo sapiens, UniProt P41145); test: cell-based
T1 construct: host or cells: CHO (HitHunter cell line)

Sprague-Dawley rats [8] = test: Expression of behavioral sensitization to cocaine; format: in vivo, rat; conditions: 0.3 mg/kg i.p. on day 10, 45 min before cocaine 20 mg/kg
rats [9] = test: Forced swim test; format: in vivo, rat; conditions: 0.3 mg/kg i.p., 45 min before test
Experimental: The FST apparatus consisted of a cylinder (44 cm high and 20 cm in diameter) filled to 35 cm with water maintained at 25 ± 1 °C. On the habituation day, the rats were placed in the swim chamber for 15 min and the following day were administered either with Mesyl Sal B (0.3 mg/kg, i.p.) or the vehicle (75% DMSO, 1 mL/kg, i.p.) and placed in the swim chamber45 min later. The forced swimming behavior was recorded by a video camera and the climbing, swimming, or immobility behaviors were recorded for 5 min. Data were analyzed using the SMART software (version 3.0; PanLab, Barcelona, Spain).

rats [10] = conditions: rat, in vivo
rats [11] = test system: rats
Sprague Dawley rats [12] = conditions: rat, in vivo
B6.SJL mice [13] = conditions: mouse, in vivo; for EC50 (antinociception, % MPE): sc
rats [14] = test system: rats; remark: listed apart in the source
B6.SJL mice [15] = conditions: cited from earlier work; for duration of action (antinociceptive effects): 1 mg/kg
hKOR = target: T2, hKOR (Homo sapiens, UniProt P41145); test: cell-based; format: cell-based
T2 construct: host or cells: U2OS (PathHunter U2OS-hKOR-βarrestin2-DX)

mice [16] = test system: mice; set-up: method as in PMID 28263712; conditions: 3 mg/kg; cited from earlier work
mice [17] = test system: mice; set-up: method as in PMID 28263712; conditions: chronic escalation drinking; cited from earlier work
mice [18] = test system: mice
Sprague-Dawley rats [19] = test: Cocaine-induced hyperactivity; format: in vivo, rat; conditions: 0.3 mg/kg i.p., 45 min prior to cocaine 20 mg/kg
mice [20] = conditions: mouse, in vivo; cited from earlier work
Rhesus macaques = conditions: 0.01–0.1 mg/kg i.v.; cited from earlier work
KOPr [21] = target: T1, KOPr; set-up: method as in PMID 25320048; conditions: human embryonic kidney cells; cited from earlier work
rats [22] = conditions: 0.16 mg/kg; cited from earlier work
mice [23] = conditions: Sal A 3–10 mg/kg, for 30 min; cited from earlier work
Sprague-Dawley rats [24] = conditions: rat, in vivo; cited from earlier work
[25] = test system: P-glycoprotein efflux pump; conditions: cited from earlier work
Sprague-Dawley rats [26] = conditions: rat, in vivo; cited from earlier work; remark: listed apart in the source
rats [27] = conditions: 0.3 mg/kg; cited from earlier work
mice [28] = conditions: 1–3.2 mg/kg; cited from earlier work
human KOPr [29] = conditions: cited from earlier work; remark: listed apart in the source
Sprague Dawley rats [30] = conditions: rat, in vivo; cited from earlier work
rhesus monkeys = conditions: rhesus monkey, in vivo; cited from earlier work
rat KOPr = conditions: cited from earlier work
B6.SJL mice [31] = conditions: cited from earlier work
[32] = 2 mg/kg i.p., 5 min before formaldehyde

T2 sequence (P41145 whole entry): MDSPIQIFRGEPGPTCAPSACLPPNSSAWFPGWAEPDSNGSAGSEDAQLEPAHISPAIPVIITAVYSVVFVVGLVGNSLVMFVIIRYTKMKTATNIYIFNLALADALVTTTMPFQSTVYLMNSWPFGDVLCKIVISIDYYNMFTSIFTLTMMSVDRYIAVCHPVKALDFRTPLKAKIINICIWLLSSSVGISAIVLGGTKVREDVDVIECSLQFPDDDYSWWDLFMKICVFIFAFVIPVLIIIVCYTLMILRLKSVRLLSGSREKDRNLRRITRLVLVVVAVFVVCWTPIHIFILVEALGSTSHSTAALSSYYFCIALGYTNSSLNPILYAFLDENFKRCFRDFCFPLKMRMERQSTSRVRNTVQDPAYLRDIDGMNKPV
T2 sequence (P32121 whole entry partner): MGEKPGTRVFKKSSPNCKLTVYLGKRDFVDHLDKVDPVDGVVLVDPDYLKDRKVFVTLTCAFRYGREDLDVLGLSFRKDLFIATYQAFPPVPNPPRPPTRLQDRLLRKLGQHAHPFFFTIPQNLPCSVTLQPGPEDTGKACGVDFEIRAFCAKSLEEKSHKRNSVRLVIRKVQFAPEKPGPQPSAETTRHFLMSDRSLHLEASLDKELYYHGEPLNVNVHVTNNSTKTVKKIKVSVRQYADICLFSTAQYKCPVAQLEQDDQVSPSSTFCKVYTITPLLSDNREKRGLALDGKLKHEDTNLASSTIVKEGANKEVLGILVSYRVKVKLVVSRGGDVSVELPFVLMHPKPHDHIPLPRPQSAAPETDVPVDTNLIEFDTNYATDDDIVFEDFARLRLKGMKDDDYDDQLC
T1 sequence (P41145 whole entry): as the sequence (P41145 whole entry) above

CCOCO[C@H]1C[C@@H](C(=O)OC)[C@]2(C)CC[C@H]3C(=O)O[C@H](c4ccoc4)C[C@]3(C)[C@H]2C1=O [2-ethoxymethyl ether Sal B]
pro-depressive effects (rats [1]): did not | aversive effects in the CPA paradigm (rats [2]): did not show aversive effects | cocaine-prime induced cocaine seeking (rats [3]; rats): attenuate

COC(=O)[C@@H]1C[C@H](OS(C)(=O)=O)C(=O)[C@H]2[C@@]1(C)CC[C@H]1C(=O)O[C@H](c3ccoc3)C[C@]21C [Mesyl Sal B, (2S,4aR,6aR,7R,9S,10aS,10bR)-9-(methanesulfonyloxy)-2-(3-furanyl)dodecahydro-6a, 10b-dimethyl-4,10-dioxy-2H-naptho [2,1-c]pyran-7-carboxylic acid methyl ester]
Ki (human KOPr [4]): 2.3 ± 0.1 nM | sucrose intake (sucrose-reinforced responding) (Sprague Dawley rats [5]): no effect | pain score (B6.SJL mice [6]; mouse, in vivo): small but significant decrease | phase 1 nociceptive pain (0–15 min) (B6.SJL mice [6]; mouse, in vivo): minimally effective | phase 2 inflammatory pain (20–60 min) (B6.SJL mice [6]; mouse, in vivo): reducing phase 2 pain at the 30 min time point | formaldehyde-induced paw edema (B6.SJL mice [6]; mouse, in vivo, ip, 2 mg/kg): no significant reduction | locomotor activity, spontaneous open field (drug naïve rats; rat, in vivo): no significant effect | EC50 (KOPr [7]): 0.12 nM | expression of cocaine behavioral sensitization (Sprague-Dawley rats [8]): suppresses | swimming time (rats [9]): significant decrease | time spent immobile (rats [9]): significant increase | time spent in the drug-paired chamber (rats [10]): did not significantly alter | time spent in the open arm (rats [11]; rat, in vivo): no effect | recognition index (RI) value (Sprague Dawley rats [12]): No change | Emax (B6.SJL mice [13]): 38% | EC50 (antinociception, % MPE) (B6.SJL mice [13]): 3.0 mg/kg | taste aversion (saccharin consumption on test day) (rats [14]; rat, in vivo): did not induce taste aversion | duration of action (antinociceptive effects) (B6.SJL mice [15]; mouse, in vivo, ip): 60 min | time at which effects are seen (onset of action) (B6.SJL mice [15]; mouse, in vivo): 30 to 60 min | Bias Factor (hKOR): 0.61 | EC50 (hKOR): 236 nM | β-Arrestin Recruitment (PathHunter) Efficacy (hKOR): 90.2% | sucrose or saccharin intake (mice [16]): no effect | alcohol intake (mice [17]): attenuates | motor impairment (latency to fall) (mice [18]; mouse, in vivo): no motor impairment | cocaine-prime induced reinstatement of drug seeking (rats [3]; rat, in vivo): attenuate | cocaine-induced hyperactivity (Sprague-Dawley rats [19]): suppressed

COC(=O)[C@@H]1C[C@H](OC(C)=O)C(=O)[C@H]2[C@@]1(C)CC[C@H]1C(=O)O[C@H](c3ccoc3)C[C@]21C [Sal A, Salvinorin A]
climbing behavior (motor coordination) (mice [20]): rapidly disrupt climbing behavior | phase 1 nociceptive pain (0–15 min) (B6.SJL mice [6]; [32]): significant attenuation | phase 2 inflammatory pain (20–60 min) (B6.SJL mice [6]; [32]): significant attenuation | formaldehyde-induced paw edema (B6.SJL mice [6]; 60 min after formaldehyde, Sal A 2 mg/kg i.p.): significantly reduced | sedation (Rhesus macaques): sedative effect | signaling bias (KOPr [21]): balanced agonist | depressive effects (rats [1]; 0.25–2 mg/kg, rats): induces depressive effects | anti-depressive and anxiolytic effects (rats [1]; 10–1000 μg/kg, rats): potent anti-depressive and anxiolytic effects | spontaneous locomotion, open field (drug naïve rats; 0.3 mg/kg, rats): did not alter | anxiety-related effects (rats [22]): anxiolytic effects | time spent in the open arm (rats [11]; 1 mg/kg): significantly decreased | motor coordination in rotarod performance test (mice [23]): induced motor incoordination | cocaine-induced behavioral sensitization (Sprague-Dawley rats [24]): attenuated | Emax (B6.SJL mice [13]): 87% | EC50 (antinociception, % MPE) (B6.SJL mice [13]): 2.1 mg/kg | P-glycoprotein efflux pump substrate [25]: substrate | locomotor activity produced by acute cocaine administration (Sprague-Dawley rats [26]): increased | aversion in CTA experiments (rats [27]): no aversion | taste aversion (saccharin consumption on test day) (rats [14]; 0.3 mg/kg): no effect | duration of action (antinociceptive effects) (B6.SJL mice [15]; mice, i.p.): 15 min | Bias Factor (hKOR): 0.35 | place conditioning at higher doses (mice [28]): aversion | signaling bias (human KOPr [29]; human receptor): significantly biased towards the β-arrestin2 pathway | sucrose self-administration (Sprague Dawley rats [30]): no effects | motor impairment (latency to fall) (mice [18]; 2 mg/kg i.p., at 2 and 15 min): significant motor impairment | cocaine-prime induced cocaine seeking (rats [3]; rats): attenuate | cocaine-prime induced reinstatement of drug seeking (rats [3]; rats): attenuate

CCC12CCN(CC3(O)CC3)C(Cc3ccc(O)cc31)C2(C)C (stereo not drawn) [bremazocine]
cocaine self-administration (rhesus monkeys): decreased | food reinforcements (rhesus monkeys): decreased

CC[C@]12CCN(CC3CC3)[C@H](C(=O)c3ccc(O)cc31)[C@@H]2C [ethylketazocine]
cocaine self-administration (rhesus monkeys): decreased | food reinforcements (rhesus monkeys): decreased

CN(C(=O)/C=C/c1ccoc1)[C@@H]1CC[C@@]2(O)[C@H]3Cc4ccc(O)c5c4[C@@]2(CCN3CC2CC2)[C@H]1O5 [nalfurafine]
signaling bias (rat KOPr): bias to a much lesser extent | signaling bias (human KOPr [29]): extreme G-protein biased signaling

Oc1ccc2c3c1O[C@H]1c4[nH]c5c(c4C[C@@]4(O)[C@@H](C2)N(CC2CC2)CC[C@]314)C[C@@]1(O)[C@H]2Cc3ccc(O)c4c3[C@@]1(CCN2CC1CC1)[C@H]5O4 [nor-BNI, Nor-binaltorphimine]
effect on U50488-induced decrease in recognition index (Sprague Dawley rats [12]): prevented

COC(=O)[C@@H]1C[C@H](OC2CCCCO2)C(=O)[C@H]2[C@@]1(C)CC[C@H]1C(=O)O[C@H](c3ccoc3)C[C@]21C (stereo partly drawn) [β-tetrahydropyran Sal B]
antinociceptive effects (B6.SJL mice [31]; intraplantar 2% formaldehyde): potent antinociceptive effects | pro-depressive effects (rats [1]): did not | potency and efficacy, cumulative dose-response (B6.SJL mice [15]; compared with Sal A): more potent and more efficacious than Sal A | cocaine-prime induced cocaine seeking (rats [3]; rats): attenuate

RB-64
motor coordination in rotarod performance test (mice [23]): did not cause any motor deficits

spirobutyrolactone Sal B
formaldehyde-induced paw edema (B6.SJL mice [31]): significantly reduced | nociceptive phase of pain (B6.SJL mice [31]): did not reduce | antinociceptive effects, inflammatory phase (B6.SJL mice [31]; intraplantar 2% formaldehyde): potent antinociceptive effects

— PMC6222496 (Molecules : A Journal of Synthetic Chemistry and Natural …, 2018)
